Data: patent US20060134195A1, “Mannose-based fast dissolving tablets” (priority 2002, published 2006)
“And” between values parts separate entries of the source, which are not always exact repeats. Identical values can stand only once. Like-named read-outs stand apart in the source and are kept apart here.

How the values were obtained:
[1] = Tablet strength graded 1-5 by hand and by dropping the tablet; format: physicochemical; set-up: key: strength grade on a 1-5 scale
Experimental: (§1) A variety of candidate materials were used to make compressed tablets, and the tablet properties, such as strength and disintegration time, were examined. Particles of each material were compressed under different pressure by a Carver press. The hardness of the tablet was tested by hand for initial qualitative measurement and also by dropping the tablet from a certain height onto the laboratory bench top or to the floor. The tablet strength was graded by assigning a number ranging from 1-5. […] Each tablet was placed into 5 mL water and observed for 30 seconds to see if it disintegrated and dissolved in that time period.

[2] = Tablet placed into 5 mL water and observed for 30 seconds for disintegration and dissolution; format: physicochemical
Experimental: as §1

[3] = compression pressure 35.1 MPa, 5 mL water, 30 seconds
[4] = compression pressure 105 MPa, 5 mL water, 30 seconds
[5] = compression pressure 70.2 MPa, 5 mL water, 30 seconds
[6] = summary of the materials survey, pressure not stated

## CC(=O)Oc1ccccc1C(=O)O [Aspirin, reference compound]
[1]; compression pressure 35.1 MPa
  Tablet Strength: 2
[1]; compression pressure 70.2 MPa
  Tablet Strength: 3
[1]; compression pressure 105 MPa
  Tablet Strength: 4

## OC[C@H]1O[C@@H]2O[C@H]3[C@H](O)[C@@H](O)[C@@H](O[C@H]4[C@H](O)[C@@H](O)[C@@H](O[C@H]5[C@H](O)[C@@H](O)[C@@H](O[C@H]6[C@H](O)[C@@H](O)[C@@H](O[C@H]7[C@H](O)[C@@H](O)[C@@H](O[C@H]8[C@H](O)[C@@H](O)[C@@H](O[C@H]1[C@H](O)[C@H]2O)O[C@@H]8CO)O[C@@H]7CO)O[C@@H]6CO)O[C@@H]5CO)O[C@@H]4CO)O[C@@H]3CO [Beta-Cyclodextrin]
[1]; compression pressure 35.1 MPa
  Tablet Strength: 4
[1]; compression pressure 105 MPa
  Tablet Strength: 4
[2]; [3]
  Disintegration Characteristics: No disintegration.
[2]; [4]
  Disintegration Characteristics: No disintegration.

## Cn1c(=O)c2c(ncn2C)n(C)c1=O [Caffeine, reference compound]
[1]; compression pressure 35.1 MPa
  Tablet Strength: 3
[1]; compression pressure 70.2 MPa
  Tablet Strength: 4
[2]; [5]
  Disintegration Characteristics: Breaking into particles after 20 sec.

## CC(=O)[O-].CC(=O)[O-].[Ca+2] [Calcium Acetate]
[1]
  Tablet Strength: 4
[2]
  Disintegration Characteristics: No disintegration.

## O=C([O-])[O-].[Ca+2] [Calcium Carbonate]
[1]
  Tablet Strength: 2
[2]
  Disintegration (screening summary): fast disintegration

## [Ca+2].[Cl-].[Cl-] [Calcium Chloride]
[1]
  Tablet Strength: 4

## O=P([O-])(O)O.O=P([O-])(O)O.[Ca+2] [Calcium Phosphate, Monobasic]
[1]; compression pressure 105 MPa
  Tablet Strength: 3

## O=P([O-])([O-])O.[Ca+2] [DITAB, Calcium Phosphate, Dibasic]
[1]; compression pressure 70.2 MPa
  Tablet Strength: 4
[2]; [6]
  Disintegration (screening summary): fast disintegration

## N[C@@H](CCC(=O)O)C(=O)O [Glutamic acid]
[1]; compression pressure 105 MPa
  Tablet Strength: 3
[2]; [6]
  Disintegration (screening summary): fast disintegration

## NCC(=O)O [Glycine]
[1]; compression pressure 105 MPa
  Tablet Strength: 2
[2]; [6]
  Disintegration (screening summary): fast disintegration

## CC(C)Cc1ccc(C(C)C(=O)O)cc1 (stereo not shown) [Ibuprofen, reference compound]
[1]; compression pressure 70.2 MPa
  Tablet Strength: 3

## O.OC[C@H]1O[C@@H](O[C@H]2[C@H](O)[C@@H](O)C(O)O[C@@H]2CO)[C@H](O)[C@@H](O)[C@H]1O (stereo partly shown) [Lactose monohydrate]
[1]; compression pressure 70.2 MPa
  Tablet Strength: 3

## OC[C@H]1O[C@H](O[C@H]2[C@H](O)[C@@H](O)[C@H](O)O[C@@H]2CO)[C@H](O)[C@@H](O)[C@@H]1O [Maltose]
[1]; compression pressure 70.2 MPa
  Tablet Strength: 3
[2]; [5]
  Disintegration Characteristics: Total disintegration of the entire tablet.
[2]; [6]
  Disintegration (screening summary): fast disintegration

## OC[C@@H](O)[C@@H](O)[C@H](O)[C@H](O)CO [Mannitol]
[1]; compression pressure 70.2 MPa
  Tablet Strength: 2

## O=C(O)c1ccccc1O [Salicylic Acid]
[1]; compression pressure 35.1 MPa
  Tablet Strength: 1
[1]; compression pressure 70.2 MPa
  Tablet Strength: 2
[1]; compression pressure 105 MPa
  Tablet Strength: 2
[2]; [5]
  Disintegration Characteristics: No disintegration.
[2]; [4]
  Disintegration Characteristics: No disintegration.

## O=C([O-])[O-].[Na+].[Na+] [Sodium Carbonate]
[1]
  Tablet Strength: 4 and 3
[2]
  Disintegration Characteristics: No disintegration.

## [Cl-].[Na+] [Sodium Chloride]
[1]; compression pressure 70.2 MPa
  Tablet Strength: 2
[1]; compression pressure 105 MPa
  Tablet Strength: 2
[2]; [5]
  Disintegration Characteristics: No disintegration.
[2]; [4]
  Disintegration Characteristics: No disintegration.

## O=C1NS(=O)(=O)c2ccccc21.[Na] [Sodium Saccharin]
[1]; compression pressure 35.1 MPa
  Tablet Strength: 1
[1]; compression pressure 70.2 MPa
  Tablet Strength: 2
[1]; compression pressure 105 MPa
  Tablet Strength: 2
[2]; [3]
  Disintegration Characteristics: Instant disintegration
[2]; [5]
  Disintegration Characteristics: Instant disintegration
[2]; [4]
  Disintegration Characteristics: Instant disintegration
[2]; [6]
  Disintegration (screening summary): fast disintegration

## OC[C@H]1O[C@@](CO)(O[C@H]2O[C@H](CO)[C@@H](O)[C@H](O)[C@H]2O)[C@@H](O)[C@@H]1O [Sucrose]
[1]; compression pressure 70.2 MPa
  Tablet Strength: 2
[1]; compression pressure 91.3 MPa
  Tablet Strength: 2
[2]; compression pressure 91.3 MPa, 5 mL water, 30 seconds
  Disintegration Characteristics: No improvement.

## Cn1c(=O)c2[nH]cnc2n(C)c1=O [Theophyline, reference compound]
[2]; [3]
  Disintegration Characteristics: No disintegration.
[2]; [5]
  Disintegration Characteristics: No disintegration.
[2]; [4]
  Disintegration Characteristics: No disintegration.

## CC(=O)[O-].CC(=O)[O-].[Zn+2] [Zinc Acetate]
[1]
  Tablet Strength: 3
[2]
  Disintegration Characteristics: No disintegration.

## Calcium Gluconate
[1]; compression pressure 35.1 MPa
  Tablet Strength: 4
